The record followed here is ChEMBL document CHEMBL1127881 (Bioorg Med Chem Lett, 1994).

Common to all, as to format: tissue-based
Experiment [1] deals with Muscarinic acetylcholine receptor. Description: Compound was tested for its ability to inhibit muscarinic receptor in rat cerebral cortex using [3H]quinuclidinyl benzilate (QNB); Range is 530-1100.
For experiment [2] the target is unchanged. Description: Compound was tested for its ability to inhibit muscarinic receptor in rat cerebral cortex using [3H]oxotremorine-M (OXO-M); Range is 48-100.
Experiment [3] has the same target. Description: Compound was tested for its ability to inhibit muscarinic receptor in rat cerebral cortex using [3H]quinuclidinyl benzilate (QNB); Range is […].
Experiment [4] has the same target. Description: Compound was tested for its ability to inhibit muscarinic receptor in rat cerebral cortex using [3H]oxotremorine-M (OXO-M); Range is 28-58.
The target is the same in experiment [5]. Description: Compound was tested for its ability to inhibit muscarinic receptor in rat cerebral cortex using [3H]oxotremorine-M (OXO-M); Range is 240-290.
Experiment [6] shares this target. Description: Compound was tested for its ability to inhibit muscarinic receptor in rat cerebral cortex using [3H]quinuclidinyl benzilate (QNB);.
For experiment [7] the target is unchanged. Description: Compound was tested for its ability to inhibit muscarinic receptor in rat cerebral cortex using [3H]quinuclidinyl benzilate (QNB); Range is 730-1300.
Experiment [8] has the same target. Description: Compound was tested for its ability to inhibit muscarinic receptor in rat cerebral cortex using [3H]oxotremorine-M (OXO-M); Range is 62-70.
For experiment [9] the target is unchanged. Description: Compound was tested for its ability to inhibit muscarinic receptor in rat cerebral cortex using [3H]quinuclidinyl benzilate (QNB); Range is 4300-9500.
For experiment [10] the target is unchanged. Description: Compound was tested for its ability to inhibit muscarinic receptor in rat cerebral cortex using [3H]oxotremorine-M (OXO-M); Range is 120-220.
The target is the same in experiment [11]. Description: Compound was tested for its ability to inhibit muscarinic receptor in rat cerebral cortex using [3H]quinuclidinyl benzilate (QNB); Range is 9700-23000.
For experiment [12] the target is unchanged. Description: Compound was tested for its ability to inhibit muscarinic receptor in rat cerebral cortex using [3H]oxotremorine-M (OXO-M); Range is 65-260.
The target is the same in experiment [13]. Description: Compound was tested for its ability to inhibit muscarinic receptor in rat cerebral cortex using [3H]quinuclidinyl benzilate (QNB); Range is 330-360.
Experiment [14] has the same target. Description: Compound was tested for its ability to inhibit muscarinic receptor in rat cerebral cortex using [3H]oxotremorine-M (OXO-M); Range is 18-21.
The target is the same in experiment [15]. Description: Compound was tested for its ability to inhibit muscarinic receptor in rat cerebral cortex using [3H]quinuclidinyl benzilate (QNB); Range is 3400-4200.
The target is the same in experiment [16]. Description: Compound was tested for its ability to inhibit muscarinic receptor in rat cerebral cortex using [3H]oxotremorine-M (OXO-M); Range is 21-36.

Turning to `CO/N=C(/Cl)C1=CC2CCN(C1)C2` (configuration not stated), the IC50 (usually the concentration needed to halve the response being measured) was found to be 0.77 µM in experiment [1] and 0.069 µM in [2].

In the case of `CO/N=C(/F)C1=CC2CCN(C1)C2` (configuration not stated), the concentration for half-maximal inhibition (IC50) in experiment [3] was 0.63 µM; in experiment [4], 0.026 µM.

Consider `CO/N=C(/Cl)C1=CCCN(C)C1`, for which the IC50 is 0.26 µM in experiment [5] and 2.8 µM in [6].

With `CO/N=C(/F)C1=CCCN(C)C1`, in experiment [4], the IC50 is 0.039 µM.

As to `CO/N=C\C1=CC2CCN(C1)C2` (configuration not stated), the IC50 in experiment [7] amounted to 0.96 µM; in experiment [8], 0.064 µM.

On to `CO/N=C(/C#N)C1=CCCN(C)C1`, for which the IC50 was found to be 4.5 µM in [9] and 0.15 µM in experiment [10].

`CO/N=C\C1=CCCN(C)C1`: the results for the IC50 in experiment [11] and in [12] were 14 µM and 0.11 µM, respectively.

In the case of `CO/N=C(/C#N)C1=CC2CCN(C1)C2` (configuration not stated), the IC50 in [13] was found to be 0.35 µM; in experiment [14], 0.02 µM.

On to `COC(=O)C1=CC2CCN(C1)C2` (configuration not stated), for which the IC50 in experiment [15] is 3.8 µM; in [16], 0.027 µM.
